Laboratory results from PubChem BioAssay (NCI).
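Five concentrations, 48 hours, 96-well plates. TGI marks complete inhibition of growth.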

What was measured:
Assay in all cases: NCI tumour cell line growth inhibition, 48 h
OVCAR-8 ovarian = tested on: OVCAR-8 ovarian
HT29 colon = tested on: HT29 colon
SK-OV-3 ovarian = tested on: SK-OV-3 ovarian
NCI-H23 lung = tested on: NCI-H23 lung
T-47D breast = tested on: T-47D breast
HCC-2998 colon = tested on: HCC-2998 colon
MDA-MB-435 = tested on: MDA-MB-435
U251 CNS = tested on: U251 CNS
SW-620 colon = tested on: SW-620 colon
EKVX NSCLC = tested on: EKVX NSCLC
IGROV1 ovarian = tested on: IGROV1 ovarian
NCI/ADR-RES ovarian = tested on: NCI/ADR-RES ovarian
PC-3 prostate = tested on: PC-3 prostate
OVCAR-5 ovarian = tested on: OVCAR-5 ovarian
COLO 205 colon = tested on: COLO 205 colon
SK-MEL-5 melanoma = tested on: SK-MEL-5 melanoma
SN12C renal = tested on: SN12C renal
HL-60(TB) leukemia = tested on: HL-60(TB) leukemia
RXF 393 renal = tested on: RXF 393 renal
ACHN renal = tested on: ACHN renal
HCT-116 colon = tested on: HCT-116 colon
M14 melanoma = tested on: M14 melanoma
UACC-257 melanoma = tested on: UACC-257 melanoma
SF-539 CNS = tested on: SF-539 CNS
HCT-15 colon = tested on: HCT-15 colon
SK-MEL-2 melanoma = tested on: SK-MEL-2 melanoma
SNB-75 CNS = tested on: SNB-75 CNS
CAKI-1 renal = tested on: CAKI-1 renal
MDA-N = tested on: MDA-N
SF-268 CNS = tested on: SF-268 CNS
LOX IMVI melanoma = tested on: LOX IMVI melanoma
SNB-19 CNS = tested on: SNB-19 CNS
A498 renal = tested on: A498 renal
HS 578T breast = tested on: HS 578T breast
SK-MEL-28 melanoma = tested on: SK-MEL-28 melanoma
A549 NSCLC = tested on: A549 NSCLC
786-0 renal = tested on: 786-0 renal
TK-10 renal = tested on: TK-10 renal
BT-549 breast = tested on: BT-549 breast
SR leukemia = tested on: SR leukemia
HOP-62 NSCLC = tested on: HOP-62 NSCLC
UO-31 renal = tested on: UO-31 renal
SF-295 CNS = tested on: SF-295 CNS
MCF7 breast = tested on: MCF7 breast
NCI-H226 lung = tested on: NCI-H226 lung
CCRF-CEM leukemia = tested on: CCRF-CEM leukemia
MOLT-4 leukemia = tested on: MOLT-4 leukemia
K-562 leukemia = tested on: K-562 leukemia
DU-145 prostate = tested on: DU-145 prostate
KM12 colon = tested on: KM12 colon
RPMI-8226 leukemia = tested on: RPMI-8226 leukemia
OVCAR-3 ovarian = tested on: OVCAR-3 ovarian
UACC-62 melanoma = tested on: UACC-62 melanoma
MDA-MB-231 breast = tested on: MDA-MB-231 breast
NCI-H522 lung = tested on: NCI-H522 lung
MALME-3M melanoma = tested on: MALME-3M melanoma

## CCOC(=O)C(NC(=O)Nc1ccc(Cl)cc1)(OC)C(F)(F)F (centres undefined)
OVCAR-8 ovarian
  TGI: > 100 µM
HT29 colon
  TGI: > 100 µM
SK-OV-3 ovarian
  TGI: > 100 µM
NCI-H23 lung
  TGI: > 100 µM
T-47D breast
  TGI: > 100 µM
HCC-2998 colon
  TGI: 32.7 µM
MDA-MB-435
  TGI: > 100 µM
U251 CNS
  TGI: > 100 µM
SW-620 colon
  TGI: > 100 µM
EKVX NSCLC
  TGI: > 100 µM
IGROV1 ovarian
  TGI: > 100 µM
NCI/ADR-RES ovarian
  TGI: > 100 µM
PC-3 prostate
  TGI: > 100 µM
OVCAR-5 ovarian
  TGI: > 100 µM
COLO 205 colon
  TGI: > 100 µM
SK-MEL-5 melanoma
  TGI: > 100 µM
SN12C renal
  TGI: > 100 µM
HL-60(TB) leukemia
  TGI: > 100 µM
RXF 393 renal
  TGI: > 100 µM
ACHN renal
  TGI: > 100 µM
HCT-116 colon
  TGI: > 100 µM
M14 melanoma
  TGI: > 100 µM
UACC-257 melanoma
  TGI: > 100 µM
SF-539 CNS
  TGI: > 100 µM
HCT-15 colon
  TGI: > 100 µM
SK-MEL-2 melanoma
  TGI: 64.8 µM
SNB-75 CNS
  TGI: > 100 µM
CAKI-1 renal
  TGI: > 100 µM
MDA-N
  TGI: > 100 µM
SF-268 CNS
  TGI: > 100 µM
LOX IMVI melanoma
  TGI: > 100 µM
SNB-19 CNS
  TGI: > 100 µM
A498 renal
  TGI: > 100 µM
HS 578T breast
  TGI: > 100 µM
SK-MEL-28 melanoma
  TGI: > 100 µM
A549 NSCLC
  TGI: > 100 µM
786-0 renal
  TGI: > 100 µM
TK-10 renal
  TGI: > 100 µM
BT-549 breast
  TGI: > 100 µM
SR leukemia
  TGI: > 100 µM

## COc1cccc2c1OCC1Cc3ccccc3OC21 (centres undefined)
OVCAR-8 ovarian
  TGI: > 100 µM
HOP-62 NSCLC
  TGI: > 100 µM
HT29 colon
  TGI: > 100 µM
SK-OV-3 ovarian
  TGI: > 100 µM
UO-31 renal
  TGI: > 100 µM
NCI-H23 lung
  TGI: > 100 µM
T-47D breast
  TGI: > 100 µM
SF-295 CNS
  TGI: > 100 µM
HCC-2998 colon
  TGI: > 100 µM
MDA-MB-435
  TGI: 75.3 µM
U251 CNS
  TGI: > 100 µM
MCF7 breast
  TGI: > 100 µM
NCI-H226 lung
  TGI: > 100 µM
SW-620 colon
  TGI: > 100 µM
CCRF-CEM leukemia
  TGI: > 100 µM
MOLT-4 leukemia
  TGI: > 100 µM
EKVX NSCLC
  TGI: > 100 µM
IGROV1 ovarian
  TGI: > 100 µM
NCI/ADR-RES ovarian
  TGI: > 100 µM
PC-3 prostate
  TGI: > 100 µM
K-562 leukemia
  TGI: > 100 µM
OVCAR-5 ovarian
  TGI: > 100 µM
COLO 205 colon
  TGI: 96.1 µM
SK-MEL-5 melanoma
  TGI: 30.8 µM
SN12C renal
  TGI: 70.1 µM
DU-145 prostate
  TGI: > 100 µM
HCT-116 colon
  TGI: > 100 µM
KM12 colon
  TGI: > 100 µM
M14 melanoma
  TGI: > 100 µM
UACC-257 melanoma
  TGI: 65.3 µM
SF-539 CNS
  TGI: > 100 µM
RPMI-8226 leukemia
  TGI: > 100 µM
HCT-15 colon
  TGI: > 100 µM
SK-MEL-2 melanoma
  TGI: > 100 µM
OVCAR-3 ovarian
  TGI: 88.8 µM
CAKI-1 renal
  TGI: > 100 µM
MDA-N
  TGI: 64.8 µM
UACC-62 melanoma
  TGI: > 100 µM
SF-268 CNS
  TGI: > 100 µM
LOX IMVI melanoma
  TGI: 98.3 µM
A498 renal
  TGI: > 100 µM
A549 NSCLC
  TGI: > 100 µM
786-0 renal
  TGI: > 100 µM
MDA-MB-231 breast
  TGI: > 100 µM
NCI-H522 lung
  TGI: > 100 µM
TK-10 renal
  TGI: 72.8 µM
BT-549 breast
  TGI: 52.2 µM
MALME-3M melanoma
  TGI: > 100 µM
SR leukemia
  TGI: > 100 µM
